From ChEMBL document CHEMBL4382291, “Aminopyrazole Carboxamide Bruton's Tyrosine Kinase Inhibitors. Irreversible to Reversible Covalent Reactive Group Tuning” (ACS Med Chem Lett, 2019)

Key:
[1] = molecular target: T1, Tyrosine-protein kinase BTK (Homo sapiens, UniProt Q06187)
Description: Inhibition of full-length human His-tagged BTK expressed in baculovirus expression system using FAM-Srctide peptide as substrate preincubated for 1 hr followed by substrate addition and measured after 1 hr by TR-FRET Lanthascreen assay

[2] = Cytotoxicity against human THLE cells; format: cell-based
[3] = molecular target: T1, Tyrosine-protein kinase BTK; remark: listed apart in the source
Description: Reversible inhibition of full-length human His-tagged BTK expressed in baculovirus expression system assessed as apparent dissociation half life by kinase tracer 236 based TR-FRET assay

[4] = molecular target: Proto-oncogene tyrosine-protein kinase Src (Homo sapiens, UniProt P12931); experiment: Inhibition of full-length recombinant human C-terminal His-tagged SRC cytoplasmic domain expressed in baculovirus expression system using FAM-Srctide peptide as substrate preincubated for 1 hr followed by substrate addition and measured after 1 hr by TR-FRET Lanthascreen assay
Proto-oncogene tyrosine-protein kinase Src, sequence (P12931 2-536 limits assumed): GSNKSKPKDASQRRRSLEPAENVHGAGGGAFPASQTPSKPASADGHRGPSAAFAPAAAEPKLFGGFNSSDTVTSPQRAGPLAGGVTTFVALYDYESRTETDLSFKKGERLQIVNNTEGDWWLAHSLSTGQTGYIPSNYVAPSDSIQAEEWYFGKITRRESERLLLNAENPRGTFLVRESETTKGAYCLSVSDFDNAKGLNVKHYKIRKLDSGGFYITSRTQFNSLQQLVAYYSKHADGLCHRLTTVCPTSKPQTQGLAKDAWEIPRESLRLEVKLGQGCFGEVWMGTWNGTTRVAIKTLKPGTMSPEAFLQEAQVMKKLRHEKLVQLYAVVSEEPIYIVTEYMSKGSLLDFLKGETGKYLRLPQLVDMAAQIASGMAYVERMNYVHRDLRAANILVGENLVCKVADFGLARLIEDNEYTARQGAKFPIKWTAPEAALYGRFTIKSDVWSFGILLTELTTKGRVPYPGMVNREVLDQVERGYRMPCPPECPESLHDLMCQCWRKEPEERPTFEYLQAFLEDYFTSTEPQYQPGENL

[5] = molecular target: Tyrosine-protein kinase BTK (Homo sapiens, UniProt Q06187, C481S); experiment: Inhibition of full-length human C-terminal His6-tagged BTK C481S mutant expressed in Sf9 insect cells using FAM-Srctide peptide as substrate preincubated for 1 hr followed by substrate addition and measured after 1 hr by TR-FRET Lanthascreen assay
Tyrosine-protein kinase BTK (Homo sapiens, UniProt Q06187, C481S), sequence (Q06187 2-659 C481S limits assumed): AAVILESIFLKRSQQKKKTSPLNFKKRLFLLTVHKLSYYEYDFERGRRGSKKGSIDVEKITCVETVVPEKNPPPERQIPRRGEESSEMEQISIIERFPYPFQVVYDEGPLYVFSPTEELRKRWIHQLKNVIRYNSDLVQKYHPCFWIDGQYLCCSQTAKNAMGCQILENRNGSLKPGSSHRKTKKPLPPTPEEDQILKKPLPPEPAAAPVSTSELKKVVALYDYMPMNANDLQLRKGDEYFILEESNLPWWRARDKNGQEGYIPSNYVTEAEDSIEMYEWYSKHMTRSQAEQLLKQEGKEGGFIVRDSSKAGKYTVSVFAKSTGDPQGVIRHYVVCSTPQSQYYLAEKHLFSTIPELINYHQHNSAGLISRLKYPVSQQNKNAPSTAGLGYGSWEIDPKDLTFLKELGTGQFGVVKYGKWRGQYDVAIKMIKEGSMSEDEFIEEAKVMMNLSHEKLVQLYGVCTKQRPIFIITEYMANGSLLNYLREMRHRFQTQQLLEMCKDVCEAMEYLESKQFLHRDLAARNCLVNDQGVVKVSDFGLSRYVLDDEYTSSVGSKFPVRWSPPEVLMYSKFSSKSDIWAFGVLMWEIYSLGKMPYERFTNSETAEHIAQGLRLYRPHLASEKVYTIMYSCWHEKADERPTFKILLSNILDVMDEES

[6] = molecular target: Epidermal growth factor receptor (Homo sapiens, UniProt P00533)
Epidermal growth factor receptor, sequence (P00533 whole entry): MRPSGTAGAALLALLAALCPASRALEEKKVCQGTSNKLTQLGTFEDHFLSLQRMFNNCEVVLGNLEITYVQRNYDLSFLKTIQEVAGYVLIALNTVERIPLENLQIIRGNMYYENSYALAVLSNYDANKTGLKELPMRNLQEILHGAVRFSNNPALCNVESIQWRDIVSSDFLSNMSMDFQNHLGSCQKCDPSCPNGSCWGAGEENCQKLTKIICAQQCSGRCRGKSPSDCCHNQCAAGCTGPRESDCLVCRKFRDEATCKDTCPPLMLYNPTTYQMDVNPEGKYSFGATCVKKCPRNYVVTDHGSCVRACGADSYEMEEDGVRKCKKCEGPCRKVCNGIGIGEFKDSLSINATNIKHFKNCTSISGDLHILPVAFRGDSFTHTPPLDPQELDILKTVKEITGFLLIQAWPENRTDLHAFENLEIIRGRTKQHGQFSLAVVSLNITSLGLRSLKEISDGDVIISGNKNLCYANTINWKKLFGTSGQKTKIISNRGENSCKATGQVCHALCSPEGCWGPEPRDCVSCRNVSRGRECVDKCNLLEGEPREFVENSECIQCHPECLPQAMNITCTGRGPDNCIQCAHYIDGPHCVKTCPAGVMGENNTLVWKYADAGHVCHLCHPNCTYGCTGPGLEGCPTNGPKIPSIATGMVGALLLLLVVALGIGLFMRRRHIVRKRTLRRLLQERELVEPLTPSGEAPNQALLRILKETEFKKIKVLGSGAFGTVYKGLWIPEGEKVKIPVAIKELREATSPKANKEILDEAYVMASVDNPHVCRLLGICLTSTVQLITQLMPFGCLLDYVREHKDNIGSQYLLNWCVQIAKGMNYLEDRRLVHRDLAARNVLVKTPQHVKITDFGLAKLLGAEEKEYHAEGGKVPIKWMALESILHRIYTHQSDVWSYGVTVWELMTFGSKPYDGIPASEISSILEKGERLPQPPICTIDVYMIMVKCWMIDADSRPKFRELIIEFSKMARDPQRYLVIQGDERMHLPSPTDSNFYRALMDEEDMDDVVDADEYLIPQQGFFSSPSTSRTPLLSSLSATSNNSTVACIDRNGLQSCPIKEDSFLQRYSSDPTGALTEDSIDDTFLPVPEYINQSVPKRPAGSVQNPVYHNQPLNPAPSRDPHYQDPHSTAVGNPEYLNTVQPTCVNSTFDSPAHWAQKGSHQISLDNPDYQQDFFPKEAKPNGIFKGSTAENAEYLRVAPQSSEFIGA

[7] = Oral bioavailability in Wistar Han rat at 1 mg/kg administered via gavage by LC-MS/MS analysis; format: ADME, organism-based; details: in vivo
[8] = molecular target: T1, Tyrosine-protein kinase BTK; experiment: Inhibition of BTK in human whole blood assessed as reduction in anti-human IgE antibody-stimulated histamine release pretreated for 2 hrs followed by anti-human IgE antibody-stimulation and measured after 30 mins by ELISA; format: tissue-based
[9] = Permeability in RRCK cells; format: ADME, cell-based, Canis lupus familiaris, MDCKII-LE; details: dog, MDCK; read-out: permeability
[10] = Clearance in human microsomes; format: ADME, Microsome
[11] = molecular target: T1, Tyrosine-protein kinase BTK; experiment: Inhibition of BTK in goat anti-human IgM F(ab')2-stimulated human whole blood assessed as suppression of CD69 expression on B cells pretreated for 1 hr followed by goat anti-human IgM F(ab')2-stimualtion and measured after 3 hrs by Fix/Lyse reagent based flow cytometry; format: tissue-based

T1 sequence (Q06187 whole entry): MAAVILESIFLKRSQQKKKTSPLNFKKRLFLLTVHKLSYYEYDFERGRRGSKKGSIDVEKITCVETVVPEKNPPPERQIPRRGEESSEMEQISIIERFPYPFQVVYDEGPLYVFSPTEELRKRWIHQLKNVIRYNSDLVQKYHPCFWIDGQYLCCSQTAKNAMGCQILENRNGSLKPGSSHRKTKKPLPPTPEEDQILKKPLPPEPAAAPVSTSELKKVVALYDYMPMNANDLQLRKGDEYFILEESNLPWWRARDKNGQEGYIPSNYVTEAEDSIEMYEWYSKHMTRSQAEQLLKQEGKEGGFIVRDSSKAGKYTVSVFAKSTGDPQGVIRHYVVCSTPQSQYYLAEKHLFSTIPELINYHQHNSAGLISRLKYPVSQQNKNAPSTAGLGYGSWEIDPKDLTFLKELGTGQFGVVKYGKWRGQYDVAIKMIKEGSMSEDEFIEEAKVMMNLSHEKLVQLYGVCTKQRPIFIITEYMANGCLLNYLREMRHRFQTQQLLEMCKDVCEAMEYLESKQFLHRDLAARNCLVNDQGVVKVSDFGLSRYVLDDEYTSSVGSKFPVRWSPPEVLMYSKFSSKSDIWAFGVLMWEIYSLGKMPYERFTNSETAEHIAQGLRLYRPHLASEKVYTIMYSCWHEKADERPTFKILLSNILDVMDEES

| Compound | IC50 [1] | IC50 [2] | T1/2 [3] | IC50 [4] | IC50 [5] | IC50 [6] | bioavailability [7] | IC50 [8] | Papp [9] | microsomal CLint [10] | IC50 [11] |
| --- | --- | --- | --- | --- | --- | --- | --- | --- | --- | --- | --- |
| C=CC(=O)N1CCC[C@@H](n2nc(-c3ccc(Oc4ccc(F)cc4F)cc3)c(C(N)=O)c2N)C1 | 0.25 nM | 15000 nM | > 24 h | 4030 nM | 17 nM | 26 nM |  |  |  |  |  |
| C=C(F)C(=O)N1CCC[C@@H](n2nc(-c3ccc(Oc4ccc(F)cc4F)cc3)c(C(N)=O)c2N)C1 |  | 67000 nM | > 24 h | 6480 nM | 170 nM | 570 nM |  |  |  |  |  |
| N#CN1CCC[C@@H](n2nc(-c3ccc(Oc4ccc(Cl)cc4)cc3)c(C(N)=O)c2N)C1 |  |  | 6 h | 1400 nM | 48 nM |  | 76 to 93% | 21 nM | > 10 ×10⁻⁶ cm/s | < 8 µL/min/mg | 46 nM |
| C=C(C)C(=O)N1CCC[C@@H](n2nc(-c3ccc(Oc4ccc(F)cc4F)cc3)c(C(N)=O)c2N)C1 | 247 nM |  |  | 3350 nM | 176 nM | > 20000 nM |  |  |  |  |  |
| CN(C)C/C=C/C(=O)N1CCC[C@@H](n2nc(-c3ccc(Oc4ccc(F)cc4F)cc3)c(C(N)=O)c2N)C1 | 3.7 nM | 15000 nM | > 24 h | 370 nM | 65 nM | 149 nM |  |  |  |  |  |
| N#CN1CCC[C@@H](n2nc(-c3ccc(Oc4ccc(F)cc4F)cc3)c(C(N)=O)c2N)C1 | 1.5 nM | 137000 nM | 6 h | 1630 nM | 43 nM | 16800 nM | 76 to 93% | 64 nM | > 10 ×10⁻⁶ cm/s | < 8 µL/min/mg | 53 nM |
| N#CN1CCC[C@@H](n2nc(-c3ccc(Oc4cccc(C(F)(F)F)n4)cc3)c(C(N)=O)c2N)C1 |  |  | 3 h | 14400 nM | 36 nM | > 20000 nM | 76 to 93% | 42 nM | > 10 ×10⁻⁶ cm/s | < 8 µL/min/mg | 33 nM |
| NC(=O)c1c(-c2ccc(Oc3ccc(F)cc3F)cc2)nn([C@@H]2CCCN(C(=O)/C=C/CO)C2)c1N |  | 43000 nM | > 24 h | 4610 nM | 33 nM | 2910 nM |  |  |  |  |  |
| N#CN1CCC[C@@H](n2nc(-c3ccc(Oc4ccc(Cl)cn4)cc3)c(C(N)=O)c2N)C1 | 6.2 nM |  | 7 h | > 20000 nM | 92 nM | 15400 nM | 76 to 93% | 95 nM | > 10 ×10⁻⁶ cm/s | < 8 µL/min/mg | 45 nM |
| C/C=C/C(=O)N1CCC[C@@H](n2nc(-c3ccc(Oc4ccc(F)cc4F)cc3)c(C(N)=O)c2N)C1 | 61 nM | 149000 nM | > 24 h | 3410 nM | 66 nM | > 20000 nM |  |  |  |  |  |
| N#CN1CCC[C@@H](n2nc(-c3ccc(Oc4ncc(Cl)cc4F)cc3)c(C(N)=O)c2N)C1 |  |  | 5 h | > 20000 nM | 230 nM | > 20000 nM | 76 to 93% | 50 nM | > 10 ×10⁻⁶ cm/s | < 8 µL/min/mg | 89 nM |
| NC(=O)c1c(-c2ccc(Oc3ccc(F)cc3F)cc2)nn([C@@H]2CCCN(C(=O)/C=C/C(F)F)C2)c1N | 0.41 nM | 8000 nM | > 24 h | 5840 nM | 115 nM |  |  |  |  |  |  |
| NC(=O)c1c(-c2ccc(Oc3ccc(F)cc3F)cc2)nn([C@@H]2CCCN(C(=O)/C=C/CF)C2)c1N | 2.7 nM | 49000 nM | > 24 h | 3140 nM | 90 nM |  |  |  |  |  |  |
| C=CC(=O)N1CCC[C@@H](n2nc(-c3ccc(Oc4ccccc4)cc3)c3c(N)ncnc32)C1 [IBRUTINIB] |  | 11000 nM |  |  |  |  |  |  |  |  |  |
| N#CN1CCC[C@@H](n2nc(-c3ccc(Oc4ccccc4)cc3)c(C(N)=O)c2N)C1 | 0.37 nM |  | 7 h | 4.2 nM | 2.8 nM | 1710 nM |  |  |  |  |  |
| C=CC(=O)N1CCC[C@@H](n2nc(-c3ccc(Oc4ccc(Cl)cc4)cc3)c(C(N)=O)c2N)C1 | 0.18 nM |  |  | 72 nM |  | 15 nM |  |  |  |  |  |
